Patent US4582824A, “Method for inhibiting activities of platelet activating factor” (Takeda Chemical Industries, Ltd., priority 1983, dated 1986)

How the values were obtained:
[1] = tested on: PAF-induced respiratory (airway) stenosis; assay: PAF-inhibiting activity in respiratory stenosis; assay type: in vivo, guinea pig (Hartley); settings: PAF 0.3 μg/kg i.v., control group pretreated with saline; mean±S.D., 6 cases
Protocol: Male and female Hartley strain guinea pigs weighing about 400 g were used. Under urethane anesthesia (1.5 g/kg, i.p.), each animal was immobilized in supine position and one shank of a tracheal cannula (of 4-shank type) was inserted into the airway, with two of the remaining three shanks being connected to a Harvard Apparatus rodent respirator and the remaining one shank to a bronchospasm transducer (Ugo-basile Model 7020). At an air volume of 5 to 7 ml per cycle, an air supply frequency of 70 times/min. and a lung loading pressure of 10 cm H2 O, the volume of overflowing air was recorded through the transducer on a rectigraph (Rectigraph-8S, Sanei Sokki K.K.). After gallamine triethodide (1 mg/kg, i.v.) treatment, […] of histamine 2HCl was intravenously administered to examine the response of the animal. When 0.3 μg/kg of PAF was intravenously administered to control group intravenously pretreated with physiological saline, a miximum airway stenosis was noted after 30 minutes and the amount of stenosis taking a complete stenosis as 100% was 72.8±4.3 (mean±S.D., for 6 cases). The compound of Production Example 2, when intravenously administered 2 minutes before at the dose levels of 0.3 and 1 mg/kg, suppressed the above response by PAF by 49% and 82%, respectively.

[2] = tested on: circulatory shock due to PAF; assay: Inhibitory activity against circulatory shock due to PAF in anesthetized dogs; assay type: in vivo, mongrel dogs; settings: for CO (percent of value prior to PAF) / CoF (percent of value prior to PAF) / DBP (percent of value prior to PAF) / HR (percent of value prior to PAF) / LVP (percent of value prior to PAF) / MBP (percent of value prior to PAF) / SBP (percent of value prior to PAF) / max dp/dt (row head is a drawing; percent of value prior to PAF): PAF 1.0 μg/kg i.v. alone
Protocol: Male and female mongrel dogs weighing 9 to 13 kg were used. Under pentobarital sodium ([…], i.v.) anesthesia and supportive respiration, a thoracotomy was performed at the left fourth interspace. The origin of the left coronary circumflex and the aortic arch were released, an electromagnetic probe was attached to each, and the coronary blood flow (CoF) and cardiac output (CO) were measured. Moreover, a polyethylene cannula was inserted from the apex of the heart into the left ventricle and the left ventricular pressure (LVP) was measured by means of a pressure transducer. In addition, its first-order differential dp/dt was determined by way of a differential circuit. The mean blood pressure (MBP) was continuously recorded on an ink-writing polygraph through a pressure transducer via a cannula inserted into the right femoral artery and the heart rate (HR) was similarly recorded via a tachometer driven by mean blood pressure pulse waves. PAF and the compound of Production Example 2 were respectively dissolved in physiological saline and administered via a cannula into the left femoral vein. After 1.0 μg/kg of PAF was intravenously administered and the respective parameters recovered to normal, the compound of Production Example 2 (10 mg/kg) was intravenously administered. After 10 minutes, 1.0 μg/kg of PAF was intravenously administered to estimate the anti-PAF activity of the compound of Production Example 2. All values are in percents relative to the values prior to PAF administration.

platelet aggregation = settings: compared with ADP and TXA2; cited from earlier work
respiratory stenosis = settings: compared with all the known compounds; cited from earlier work

CCCCCCCCCCCCCCCCOCC(COP(=O)([O-])OCC[N+](C)(C)C)OC(C)=O (stereo not drawn) [PAF, 1-O-alkyl-2-acetyl-sn-glyceryl-3-phosphorylcholine]
amount of stenosis taking a complete stenosis as 100% [1]: 72.8±4.3% | decrease of CO in words ([2]; PAF 1.0 μg/kg i.v.): particularly remarkable | heart rate (HR) change in words ([2]; PAF 1.0 μg/kg i.v.): only a slight decrease | time before the preadministration values were recovered ([2]; PAF 1.0 μg/kg i.v.): 60 min | CO (percent of value prior to PAF) ([2]; 0.5 min): 93 ± 13% | CoF (percent of value prior to PAF) ([2]; 0.5 min): 75 ± 3% | DBP (percent of value prior to PAF) ([2]; 0.5 min): 58 ± 3% | HR (percent of value prior to PAF) ([2]; 0.5 min): 96 ± 8% | LVP (percent of value prior to PAF) ([2]; 0.5 min): 81 ± 1% | MBP (percent of value prior to PAF) ([2]; 0.5 min): 62 ± 4% | SBP (percent of value prior to PAF) ([2]; 0.5 min): 70 ± 5% | max dp/dt (row head is a drawing; percent of value prior to PAF) ([2]; 0.5 min): 76 ± 8% | CO (percent of value prior to PAF) ([2]; 1 min): 33 ± 3% | CoF (percent of value prior to PAF) ([2]; 1 min): 77 ± 3% | DBP (percent of value prior to PAF) ([2]; 1 min): 47 ± 3% | HR (percent of value prior to PAF) ([2]; 1 min): 95 ± 8% | LVP (percent of value prior to PAF) ([2]; 1 min): 59 ± 7% | MBP (percent of value prior to PAF) ([2]; 1 min): 49 ± 5% | SBP (percent of value prior to PAF) ([2]; 1 min): 52 ± 5% | max dp/dt (row head is a drawing; percent of value prior to PAF) ([2]; 1 min): 50 ± 3% | CO (percent of value prior to PAF) ([2]; 5 min): 35 ± 7% | CoF (percent of value prior to PAF) ([2]; 5 min): 56 ± 2% | DBP (percent of value prior to PAF) ([2]; 5 min): 67 ± 12% | HR (percent of value prior to PAF) ([2]; 5 min): 89 ± 3% | LVP (percent of value prior to PAF) ([2]; 5 min): 62 ± 6% | MBP (percent of value prior to PAF) ([2]; 5 min): 63 ± 11% | SBP (percent of value prior to PAF) ([2]; 5 min): 59 ± 9% | max dp/dt (row head is a drawing; percent of value prior to PAF) ([2]; 5 min): 54 ± 7% | platelet aggregation activity in words (platelet aggregation): greater activity at lower concentrations | activity in respiratory stenosis assay in words (respiratory stenosis): highest activity of all the known compounds
